Assay results as given in ChEMBL document CHEMBL1150323, “Peptomeric analogues of trypsin inhibitor SFTI-1 isolated from sunflower seeds” (Bioorg Med Chem, 2008).
The source made the active and inactive calls. The calls are words filed in the database; no cut-off is given here. Positions of bridges follow the written chain, without caps; N, C: chain ends. Non-standard residues stand in square brackets, D forms with d. Residues, ends and D or L forms follow the SMILES beside them. Nphe = O=C(O)CNCc1ccccc1; Abu = CC[C@H](N)C(=O)O; Nlys = NCCCCNCC(=O)O

Experiments:
[1] = Proteolytic stability assessed as half life of trypsin-mediated hydrolysis by RP-HPLC; format: ADME
Bos taurus [2] = species: Bos taurus; test: Inhibition of bovine alpha chymotrypsin assessed as residual activity by spectrophotometry
[3] = target: T1, Serine protease 1 (Bos taurus) (UniProt P00760); test: Inhibition of bovine beta trypsin assessed as residual activity after 60 mins by spectrophotometry
T1 sequence (whole entry): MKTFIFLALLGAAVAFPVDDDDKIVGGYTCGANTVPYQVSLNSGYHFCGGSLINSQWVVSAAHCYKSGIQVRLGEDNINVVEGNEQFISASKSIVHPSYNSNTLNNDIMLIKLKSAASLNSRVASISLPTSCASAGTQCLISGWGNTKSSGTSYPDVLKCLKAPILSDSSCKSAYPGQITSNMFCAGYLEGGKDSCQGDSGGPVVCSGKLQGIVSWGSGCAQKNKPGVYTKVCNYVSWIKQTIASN

[4] = Proteolytic stability assessed as trypsin-mediated hydrolysis at pH 8.3 after 24 hrs by RP-HPLC; format: ADME; conditions: read-out: Activity
Bos taurus [5] = species: Bos taurus; test: Inhibition of bovine alpha chymotrypsin assessed as residual activity after 3 hrs by spectrophotometry
[6] = target: T1, Serine protease 1 (Bos taurus); test: Inhibition of bovine beta trypsin assessed as residual activity by spectrophotometry
Bos taurus [7] = species: Bos taurus; test: Inhibition of bovine alpha chymotrypsin assessed as residual activity after 40 mins by spectrophotometry
[8] = target: T1, Serine protease 1 (Bos taurus); test: Inhibition of bovine beta trypsin assessed as residual activity after 40 mins by spectrophotometry

CC[C@@H]1NC(=O)[C@H](CCCNC(=N)N)NC(=O)CNC(=O)[C@H](CC(=O)O)NC(=O)[C@@H]2CCCN2C(=O)[C@H](Cc2ccccc2)NC(=O)[C@H](CC)NC(=O)[C@H]([C@@H](C)CC)NC(=O)[C@@H]2CCCN2C(=O)[C@@H]2CCCN2C(=O)[C@H]([C@@H](C)CC)NC(=O)[C@H](CO)NC(=O)CN(CCCCN)C(=O)[C@H]([C@@H](C)O)NC1=O
half-life [1]: 1.37 h

CC[C@H](C)[C@@H]1NC(=O)[C@@H]2CCCN2C(=O)[C@@H]2CCCN2C(=O)[C@H]([C@@H](C)CC)NC(=O)[C@H](CO)NC(=O)CN(Cc2ccccc2)C(=O)[C@H]([C@@H](C)O)NC(=O)[C@@H](NC(=O)[C@H](CCCNC(=N)N)NC(=O)CN)CSSC[C@@H](C(=O)N[C@@H](Cc2ccccc2)C(=O)N2CCC[C@H]2C(=O)N[C@@H](CC(=O)O)C(=O)O)NC1=O (H-GRCT[Nphe]SIPPICFPD-OH; disulfide 3-11)
Ka (Bos taurus [2]): 3.8 ×10⁸ /M

CC[C@@H]1NC(=O)[C@H](CCCNC(=N)N)NC(=O)CNC(=O)[C@H](CC(=O)O)NC(=O)[C@@H]2CCCN2C(=O)[C@H](Cc2ccccc2)NC(=O)[C@H](CC)NC(=O)[C@H]([C@@H](C)CC)NC(=O)[C@@H]2CCCN2C(=O)[C@@H]2CCCN2C(=O)[C@H]([C@@H](C)CC)NC(=O)[C@H](CO)NC(=O)CN(CCCCN)C(=O)[C@H]([C@H](C)O)NC1=O
Ka [3]: 1.9 ×10⁸ /M

CC[C@@H]1NC(=O)[C@H](CCCNC(=N)N)NC(=O)CNC(=O)[C@H](CC(=O)O)NC(=O)[C@@H]2CCCN2C(=O)[C@H](Cc2ccccc2)NC(=O)[C@H](CC)NC(=O)[C@H]([C@@H](C)CC)NC(=O)[C@@H]2CCCN2C(=O)[C@@H]2CCCN2C(=O)[C@H]([C@@H](C)CC)NC(=O)[C@H](CO)NC(=O)[C@H](Cc2ccccc2)NC(=O)[C@H]([C@@H](C)O)NC1=O (cyclo([Abu]FPDGR[Abu]TFSIPPI))
half-life [1]: 5.9 h | metabolised at 24 h [4]: 30% | Ka (Bos taurus [5]): 1.1 ×10¹⁰ /M

CC[C@H](NC(=O)[C@@H](NC(=O)[C@@H]1CCCN1C(=O)[C@@H]1CCCN1C(=O)[C@@H](NC(=O)[C@H](CO)NC(=O)CN(CCCCN)C(=O)[C@@H](NC(=O)[C@H](CC)NC(=O)[C@@H](N)CCCCN)[C@H](C)O)[C@@H](C)CC)[C@@H](C)CC)C(=O)N[C@@H](Cc1ccccc1)C(=O)N1CCC[C@H]1C(=O)N[C@@H](CC(=O)O)C(=O)O
Activity [6]: inactive

CC[C@H](C)[C@@H]1NC(=O)[C@@H]2CCCN2C(=O)[C@@H]2CCCN2C(=O)[C@H]([C@@H](C)CC)NC(=O)[C@H](CO)NC(=O)[C@H](CCCCN)NC(=O)[C@H]([C@@H](C)O)NC(=O)[C@@H]2CSSC[C@H](NC1=O)C(=O)N[C@@H](Cc1ccccc1)C(=O)N1CCC[C@H]1C(=O)N[C@@H](CC(=O)O)C(=O)NCC(=O)N[C@@H](CCCNC(=N)N)C(=O)N2
half-life [1]: 7.25 h | Ka (Bos taurus [2]): 4.9 ×10⁶ /M

CC[C@H](NC(=O)[C@H](CCCNC(=N)N)NC(=O)CN)C(=O)N[C@H](C(=O)N[C@@H](Cc1ccccc1)C(=O)N[C@@H](CO)C(=O)N[C@H](C(=O)N1CCC[C@H]1C(=O)N1CCC[C@H]1C(=O)N[C@H](C(=O)N[C@@H](CC)C(=O)N[C@@H](Cc1ccccc1)C(=O)N1CCC[C@H]1C(=O)N[C@@H](CC(=O)O)C(=O)O)[C@@H](C)CC)[C@@H](C)CC)[C@@H](C)O
half-life [1]: 1.25 h

CC[C@H](C)[C@@H]1NC(=O)[C@@H]2CCCN2C(=O)[C@@H]2CCCN2C(=O)[C@H]([C@@H](C)CC)NC(=O)[C@H](CO)NC(=O)[C@H](CCCCN)NC(=O)[C@H]([C@@H](C)O)NC(=O)[C@@H](NC(=O)[C@H](CCCNC(=N)N)NC(=O)CN)CSSC[C@@H](C(=O)N[C@@H](Cc2ccccc2)C(=O)N2CCC[C@H]2C(=O)N[C@@H](CC(=O)O)C(=O)O)NC1=O
half-life [1]: 2.75 h | Ka (Bos taurus [2]): 4.9 ×10⁶ /M | Ka [6]: 9.9 ×10⁹ /M

CC[C@H](NC(=O)[C@H](CCCNC(=N)N)NC(=O)CN)C(=O)N[C@H](C(=O)N(CC(=O)N[C@@H](CO)C(=O)N[C@H](C(=O)N1CCC[C@H]1C(=O)N1CCC[C@H]1C(=O)N[C@H](C(=O)N[C@@H](CC)C(=O)N[C@@H](Cc1ccccc1)C(=O)N1CCC[C@H]1C(=O)N[C@@H](CC(=O)O)C(=O)O)[C@@H](C)CC)[C@@H](C)CC)Cc1ccccc1)[C@@H](C)O
metabolised at 24 h [4]: 7%

CC[C@H](C)[C@@H]1NC(=O)[C@@H]2CCCN2C(=O)[C@@H]2CCCN2C(=O)[C@H]([C@@H](C)CC)NC(=O)[C@H](CO)NC(=O)[C@H](Cc2ccccc2)NC(=O)[C@H]([C@@H](C)O)NC(=O)[C@@H](NC(=O)[C@H](CCCNC(=N)N)NC(=O)CN)CSSC[C@@H](C(=O)N[C@@H](Cc2ccccc2)C(=O)N2CCC[C@H]2C(=O)N[C@@H](CC(=O)O)C(=O)O)NC1=O (H-GRCTFSIPPICFPD-OH; disulfide 3-11)
half-life [1]: 3.03 h | Ka (Bos taurus [2]): 2 ×10⁹ /M

CC[C@@H]1NC(=O)[C@H](CCCNC(=N)N)NC(=O)CNC(=O)[C@H](CC(=O)O)NC(=O)[C@@H]2CCCN2C(=O)[C@H](Cc2ccccc2)NC(=O)[C@H](CC)NC(=O)[C@H]([C@@H](C)CC)NC(=O)[C@@H]2CCCN2C(=O)[C@@H]2CCCN2C(=O)[C@H]([C@@H](C)CC)NC(=O)[C@H](CO)NC(=O)CN(Cc2ccccc2)C(=O)[C@H]([C@@H](C)O)NC1=O
half-life [1]: 5.87 h

CC[C@H](NC(=O)[C@H](CCCNC(=N)N)NC(=O)CN)C(=O)N[C@H](C(=O)N(CCCCN)CC(=O)N[C@@H](CO)C(=O)N[C@H](C(=O)N1CCC[C@H]1C(=O)N1CCC[C@H]1C(=O)N[C@H](C(=O)N[C@@H](CC)C(=O)N[C@@H](Cc1ccccc1)C(=O)N1CCC[C@H]1C(=O)N[C@@H](CC(=O)O)C(=O)O)[C@@H](C)CC)[C@@H](C)CC)[C@@H](C)O (H-GR[Abu]T[Nlys]SIPPI[Abu]FPD-OH)
half-life [1]: 1.1 h

CC[C@H](NC(=O)[C@H](CCCNC(=N)N)NC(=O)CN)C(=O)N[C@H](C(=O)N(CC(=O)N[C@@H](CO)C(=O)N[C@H](C(=O)N1CCC[C@H]1C(=O)N1CCC[C@H]1C(=O)N[C@H](C(=O)N[C@@H](CC)C(=O)N[C@@H](Cc1ccccc1)C(=O)N1CCC[C@H]1C(=O)N[C@@H](CC(=O)O)C(=O)O)[C@@H](C)CC)[C@@H](C)CC)Cc1ccccc1)[C@H](C)O
Ka (Bos taurus [7]): 7 ×10⁷ /M

CC[C@H](NC(=O)CNCCCCN)C(=O)N[C@H](C(=O)N(CCCCN)CC(=O)N[C@@H](CO)C(=O)N[C@H](C(=O)N1CCC[C@H]1C(=O)N1CCC[C@H]1C(=O)N[C@H](C(=O)N[C@@H](CC)C(=O)N[C@@H](Cc1ccccc1)C(=O)N1CCC[C@@H]1C(=O)N[C@@H](CC(=O)O)C(=O)O)[C@@H](C)CC)[C@@H](C)CC)[C@H](C)O
Activity [6]: inactive

CC[C@H](C)[C@@H]1NC(=O)[C@@H]2CCCN2C(=O)[C@@H]2CCCN2C(=O)[C@H]([C@@H](C)CC)NC(=O)[C@H](CO)NC(=O)CN(CCCCN)C(=O)[C@H]([C@@H](C)O)NC(=O)[C@@H](NC(=O)[C@H](CCCNC(=N)N)NC(=O)CN)CSSC[C@@H](C(=O)N[C@@H](Cc2ccccc2)C(=O)N2CCC[C@H]2C(=O)N[C@@H](CC(=O)O)C(=O)O)NC1=O
Ka [6]: 1 ×10⁸ /M

CC[C@H](C)[C@@H]1NC(=O)[C@@H]2CCCN2C(=O)[C@@H]2CCCN2C(=O)[C@H]([C@@H](C)CC)NC(=O)[C@H](CO)NC(=O)CN(CCCCN)C(=O)[C@H]([C@H](C)O)NC(=O)[C@@H](NC(=O)[C@@H](N)CCCCN)CSSC[C@@H](C(=O)N[C@@H](Cc2ccccc2)C(=O)N2CCC[C@H]2C(=O)N[C@@H](CC(=O)O)C(=O)O)NC1=O
Ka [8]: 8 ×10⁷ /M

CC[C@@H]1NC(=O)[C@H](CCCNC(=N)N)NC(=O)CNC(=O)[C@H](CC(=O)O)NC(=O)[C@@H]2CCCN2C(=O)[C@H](Cc2ccccc2)NC(=O)[C@H](CC)NC(=O)[C@H]([C@@H](C)CC)NC(=O)[C@@H]2CCCN2C(=O)[C@@H]2CCCN2C(=O)[C@H]([C@@H](C)CC)NC(=O)[C@H](CO)NC(=O)CN(Cc2ccccc2)C(=O)[C@H]([C@H](C)O)NC1=O
Ka (Bos taurus [7]): 6.2 ×10⁷ /M

CC[C@H](NC(=O)[C@H](CCCNC(=N)N)NC(=O)CN)C(=O)N[C@H](C(=O)N[C@@H](Cc1ccccc1)C(=O)N[C@@H](CO)C(=O)N[C@H](C(=O)N1CCC[C@H]1C(=O)N1CCC[C@H]1C(=O)N[C@H](C(=O)N[C@@H](CC)C(=O)N[C@@H](Cc1ccccc1)C(=O)N1CCC[C@H]1C(=O)N[C@@H](CC(=O)O)C(=O)O)[C@@H](C)CC)[C@@H](C)CC)[C@H](C)O
Activity (Bos taurus [2]): inactive
